Laboratory results as given in patent US20230190690A1, “[…] AND/OR […] FOR CORONAVIRUS DISEASE 2019 (COVID-19)” (NEOPHARMA JAPAN CO., LTD., priority 2020, published 2023).
Read-outs that look alike come from different tables or passages of the source.

Experiments:
SARS-CoV-2 [1] = experiment: microbe, parasite or virus in culture; format: cell-based, SARS-CoV-2 (VeroE6, African green monkey kidney cells)
SARS-CoV-2 [2] = experiment: microbe, parasite or virus in culture; format: cell-based, SARS-CoV-2 (Caco-2, human colon cancer cells)
[3] = test system: coronavirus disease 2019 (COVID-19); experiment: Treatment example: intake of supplement capsules by a patient with COVID-19 symptoms; format: in vivo, human; details: 1 patient; intake of capsules over two days
[4] = test system: VeroE6 cells, Caco-2 cells; experiment: Cytotoxic effect in VeroE6 and Caco-2 cells; format: cell-based; details: all concentration ranges tested (up to 2000 uM)
Method: In order to confirm the dose dependence in the inhibitory effect on SARS-CoV-2 infection and/or proliferation, the agents at each concentration were tested.

Compound	inhibitory effect on SARS-CoV-2 infection and/or proliferation, dose dependence (SARS-CoV-2 [1]; VeroE6 cells, FIG. 5)	SARS-CoV-2 infection and/or proliferation (SARS-CoV-2 [2])	IC50 (SARS-CoV-2 [2]; Severe acute respiratory syndrome coronavirus 2, Caco-2 cells, FIG. 6, read-out: IC50 of inhibition of SARS-CoV-2 infection and/or proliferation)	IC50 (SARS-CoV-2 [1]; Severe acute respiratory syndrome coronavirus 2, Vero C1008, VeroE6 cells, FIG. 5, read-out: IC50 of inhibition of SARS-CoV-2 infection and/or proliferation)	infection with SARS-CoV-2 (SARS-CoV-2 [1]; VeroE6, number of seeded cells 1×10^4 cells/well)	various symptoms of coronavirus disease 2019 (COVID-19) [3]	cytotoxicity [4]
sodium ferrous citrate [SFC]	no inhibitory effect	–	–	–	–	–	–
NCC(=O)CCC(=O)O [5-ALA, 5-aminolevulinic acid]	–	strongly inhibited	39 µM	570 µM	significantly inhibited	remarkably improved	did not show significant cytotoxicity
